According to patent US11981666B2, “GLP-1 receptor agonist and composition and use thereof” (HANGZHOU ZHONGMEIHUADONG PHARMACEUTICAL CO., LTD., priority 2021, dated 2024):
Where two headings read alike, the source gives them in different places.

Experiments:
[1] = Metabolic stability in (human) liver microsomes; assay type: in vitro ADME; settings: pH 7.4, test concentration 1 μM
Experimental: 3×NADPH stock solution (6 mM, 5 mg/mL) was prepared by dissolving NADPH in the buffer solution; 4. 30 μL of 1.5 μM additive solution containing 0.75 mg/mL microsomal solution was distributed to the plates designated for different time points (0, 5, 15, 30, 45 minutes); 5. at 0 min, 150 μL of ACN containing IS was added to the wells of the plate, followed by addition of 15 μL of NADPH stock solution (6 mM, step 3); 6. all other plates were pre-incubated at 37° C. for 5 minutes; 7. adding 15 μL of NADPH stock solution to the plate to start the reaction and timing; 8. 150 μL of ACN containing IS was added to the wells of the corresponding plates to stop the reaction at 5 min, 15 min, 30 min and 45 min, respectively; 9. after quenching, the plates were shaken on a shaker for 10 minutes (600 rpm/min) and then centrifuged at 6000 rpm for 15 minutes; 10. 80 μL of supernatant was transferred from each well to a 96-well sample plate containing 140 μL water for LC/MS analysis.
Detection method: LC-MS/MS-11 (8050), internal standard: tolbutamide; MS conditions: positive ion ESI for testosterone and test compound, and negative ion ESI for tolbutamide; Mobile phases: mobile phase A is 0.1% FA in water, and mobile phase B is 0.1% FA in ACN; Column and specification: ACQUITY UPLC HSS T3 1.8 um 2.1*50 mm.

Human GLP-1R = biological target: T1, Human GLP-1R (Homo sapiens, UniProt P43220); test: GLP-1R agonistic activity assay (HTRF cAMP, 293A GFP-GLP-1R cells); assay type: cell-based; settings: cAMP level, geometric mean
T1 construct: expressed in transfected cells
Source text: The method was a competitive immunoassay.

ICR mice [2] = test: Toxicological experiment in mice, 14-day repeated oral gavage (toxicity study); assay type: in vivo
Experimental: (§1) Experimental method: 212 ICR mice (SPF grade), half male and half female. Animals in groups 1-5 were used for toxicity study, with 10 male and 10 female animals in each group; and animals in groups 6-9 were used for toxicokinetic study, with 14 male and 14 female animals in each group (2 of them were spare animals). […] Animals in Groups 1-9 were administered orally once a day for 14 consecutive days.

ICR mice [3] = test: Toxicological experiment in mice, 14-day repeated oral gavage (toxicokinetic study); assay type: in vivo, mouse; settings: toxicokinetic study, male animals, 200 mg/kg oral once a day for 14 days
Experimental: as §1

[4] = as above; assay type: in vivo, mouse; settings: ICR, mouse, po, 200 mg/kg, Day 14; for AUC(0-t): plasma, read-out: AUC(0-t), the systemic exposure (first value listed)
Experimental: as §1

hERG potassium channels = biological target: T2, hERG potassium channels (Homo sapiens, UniProt Q12809); test: Test for inhibition of hERG potassium channels (whole-cell patch clamp, HEK-293-hERG cells); assay type: cell-based
T2 construct: expressed in transfected cells; host or cells: HEK-293-hERG cells
Source text: Positive control: Amitriptyline hydrochloride or Terfenadine

T1 sequence (P43220 24-463): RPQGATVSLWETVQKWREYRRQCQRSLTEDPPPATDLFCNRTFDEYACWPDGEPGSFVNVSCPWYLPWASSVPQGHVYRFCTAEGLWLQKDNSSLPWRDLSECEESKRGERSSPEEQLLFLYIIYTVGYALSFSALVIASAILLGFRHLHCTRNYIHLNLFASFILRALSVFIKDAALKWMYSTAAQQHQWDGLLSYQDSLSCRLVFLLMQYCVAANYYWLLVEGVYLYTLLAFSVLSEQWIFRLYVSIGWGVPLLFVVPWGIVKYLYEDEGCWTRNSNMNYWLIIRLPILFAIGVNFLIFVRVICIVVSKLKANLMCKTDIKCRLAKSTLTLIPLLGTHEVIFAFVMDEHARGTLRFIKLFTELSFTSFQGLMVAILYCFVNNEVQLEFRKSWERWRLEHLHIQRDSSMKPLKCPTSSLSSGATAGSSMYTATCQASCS
T2 sequence (Q12809 whole entry): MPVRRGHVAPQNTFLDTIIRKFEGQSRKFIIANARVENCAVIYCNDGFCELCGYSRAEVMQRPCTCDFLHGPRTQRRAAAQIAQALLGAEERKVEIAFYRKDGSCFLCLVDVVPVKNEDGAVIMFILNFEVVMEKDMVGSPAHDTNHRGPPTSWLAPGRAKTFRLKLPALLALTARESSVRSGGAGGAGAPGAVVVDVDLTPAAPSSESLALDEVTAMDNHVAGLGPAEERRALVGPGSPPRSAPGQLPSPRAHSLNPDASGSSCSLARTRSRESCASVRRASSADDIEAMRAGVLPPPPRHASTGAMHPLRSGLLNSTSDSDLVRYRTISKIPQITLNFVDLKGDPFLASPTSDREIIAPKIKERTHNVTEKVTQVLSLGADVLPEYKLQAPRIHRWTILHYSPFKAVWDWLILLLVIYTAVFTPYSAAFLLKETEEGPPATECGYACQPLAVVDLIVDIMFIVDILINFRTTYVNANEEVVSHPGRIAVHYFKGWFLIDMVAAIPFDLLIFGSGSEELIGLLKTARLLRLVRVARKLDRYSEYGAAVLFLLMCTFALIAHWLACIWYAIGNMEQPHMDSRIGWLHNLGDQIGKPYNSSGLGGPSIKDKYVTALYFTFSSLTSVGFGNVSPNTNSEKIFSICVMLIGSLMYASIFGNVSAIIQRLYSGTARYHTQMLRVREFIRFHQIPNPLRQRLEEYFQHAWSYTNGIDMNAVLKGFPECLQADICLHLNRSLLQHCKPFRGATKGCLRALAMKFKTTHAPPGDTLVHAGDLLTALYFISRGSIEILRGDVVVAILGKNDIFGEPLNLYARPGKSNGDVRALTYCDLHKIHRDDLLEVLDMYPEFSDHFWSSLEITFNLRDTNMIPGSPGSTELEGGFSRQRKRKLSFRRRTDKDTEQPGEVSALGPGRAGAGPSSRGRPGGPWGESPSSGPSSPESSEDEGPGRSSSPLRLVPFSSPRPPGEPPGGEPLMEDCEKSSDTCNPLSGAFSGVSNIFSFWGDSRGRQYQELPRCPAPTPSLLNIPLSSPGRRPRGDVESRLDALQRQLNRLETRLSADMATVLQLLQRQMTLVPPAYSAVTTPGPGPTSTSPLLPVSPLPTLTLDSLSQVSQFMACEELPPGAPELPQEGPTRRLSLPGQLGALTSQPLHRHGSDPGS

O=C(O)c1ccc2nc(CN3CCC4c5nc(OCc6ccc(C7COC7)cc6F)ccc5COCC4C3)n(C[C@@H]3CCO3)c2c1 (single isomer, unassigned) [Compound 12-B]
half-life at 1 μM [1]: 1.2 h | EC50 (Human GLP-1R): 0.1 nM

O=C(O)c1ccc2nc(CN3CCC4c5nc(OCc6ccc(C7COC7)cc6Cl)ccc5COCC4C3)n(CC3CCO3)c2c1 (single isomer, unassigned) [Compound 17-B]
EC50 (Human GLP-1R): 0.14 nM

O=C(O)c1ccc2nc(CN3CCC(c4cccc(OCc5ccc(C6COC6)cc5Cl)n4)CC3)n(C[C@@H]3CCO3)c2c1 [Compound 2, (S)-2-((4-(6-((2-chloro-4-(oxetan-3-yl)benzyl)oxy)pyridin-2-yl)piperidin-1-yl)methyl)-1-(oxetan-2-ylmethyl)-1H-benzo[d]imidazole-6-carboxylic acid]
half-life at 1 μM [1]: 2.06 h | EC50 (Human GLP-1R): 0.07 nM

COc1cc(C2COC2)ccc1COc1cccc(C2CCN(Cc3nc4ccc(C(=O)O)cc4n3C[C@@H]3CCO3)CC2)n1 [Compound 3, (S)-2-((4-(6-((2-methoxy-4-(oxetan-3-yl)benzyl)oxy)pyridin-2-yl)piperidin-1-yl)methyl)-1-(oxetan-2-ylmethyl)-1H-benzo[d]imidazole-6-carboxylic acid]
half-life at 1 μM [1]: 2.56 h | EC50 (Human GLP-1R): 0.03 nM

N#CCC1(Cn2c(CN3CCC(c4cccc(OCc5ccc(C6COC6)cc5F)n4)CC3)nc3ccc(C(=O)O)cc32)CC1 [Compound 4, 1-((1-(cyanomethyl)cyclopropyl)methyl)-2-((4-(6-((2-fluoro-4-(oxetan-3-yl)benzyl)oxy)pyridin-2-yl)piperidin-1-yl)methyl)-1H-benzo[d]imidazole-6-carboxylic acid]
EC50 (Human GLP-1R): 0.08 nM

O=C(O)c1ccc2nc(CN3CCC(c4cccc(OCc5ccc(C6COC6)cc5F)n4)CC3)n(CC3(CF)CC3)c2c1 [Compound 5, 2-((4-(6-((2-fluoro-4-(oxetan-3-yl)benzyl)oxy)pyridin-2-yl)piperidin-1-yl)methyl)-1-((1-(fluoromethyl)cyclopropyl)methyl)-1H-benzo[d]imidazole-6-carboxylic acid]
EC50 (Human GLP-1R): 0.003 nM

O=C(O)c1ccc2nc(CN3CCC(c4cccc(OCc5ccc(C6COC6)cn5)n4)CC3)n(C[C@@H]3CCO3)c2c1 [Compound 6, (S)-1-(oxetan-2-ylmethyl)-2-((4-(6-((5-(oxetan-3-yl)pyridin-2-yl)methoxy)pyridin-2-yl)piperidin-1-yl)methyl)-1H-benzo[d]imidazole-6-carboxylic acid]
half-life at 1 μM [1]: 0.717 h | EC50 (Human GLP-1R): 0.7 nM

O=C(O)c1ccc2nc(CN3CCC4=C(COCc5ccc(OCc6ccc(C7COC7)cc6F)nc54)C3)n(C[C@@H]3CCO3)c2c1 [Compound 7, (S)-2-((2-((2-fluoro-4-(oxetan-3-yl)benzyl)oxy)-5,8,10,11-tetrahydro-oxepino[4,3-b: 6,5-c′]dipyridin-9(7H)-yl)methyl)-1-(oxetan-2-ylmethyl)-1H-benzo[d]imidazole-6-carboxylic acid]
half-life at 1 μM [1]: 1.74 h | EC50 (Human GLP-1R): 0.1 nM

N#CCC1(Cn2c(Cc3ccc(-c4cccc(OCc5ccc(C6COC6)cc5F)n4)cc3F)nc3ccc(C(=O)O)cc32)CC1 [Compound 8, 1-((1-(cyanomethyl)cyclopropyl)methyl)-2-(2-fluoro-4-(6-((2-fluoro-4-(oxetan-3-yl)benzyl)oxy)pyridin-2-yl)benzyl)-1H-benzo[d]imidazole-6-carboxylic acid]
EC50 (Human GLP-1R): 0.02 nM

O=C(O)c1ccc2nc(CN3CCC(c4cccc(OCc5ccc(C6COC6)cc5F)n4)CC3)n(CC3(F)CCC3)c2c1 [Compound 9, 2-((4-(6-((2-fluoro-4-(oxetan-3-yl)benzyl)oxy)pyridin-2-yl)piperidin-1-yl)methyl)-1-((1-fluorocyclobutyl)methyl)-1H-benzo[d]imidazole-6-carboxylic acid]
EC50 (Human GLP-1R): 0.39 nM

O=C(O)c1ccc2nc(Cc3ccc(-c4cccc(OCc5ccc(C6COC6)cc5F)n4)cc3F)n(CC3(CF)CC3)c2c1 [Compound 10, 2-(2-fluoro-4-(6-((2-fluoro-4-(oxetan-3-yl)benzyl)oxy)pyridin-2-yl)benzyl)-1-((1-(fluoromethyl)cyclopropyl)methyl)-1H-benzo[d]imidazole-6-carboxylic acid]
EC50 (Human GLP-1R): 0.03 nM

O=C(O)c1ccc2nc(Cc3ccc(-c4cccc(OCc5ccc(C6COC6)cc5F)n4)cc3F)n(C[C@@H]3CCO3)c2c1 [Compound 11, (S)-2-(2-fluoro-4-(6-((2-fluoro-4-(oxetan-3-yl)benzyl)oxy)pyridin-2-yl)benzyl)-1-(oxetan-2-ylmethyl)-1H-benzo[d]imidazole-6-carboxylic acid]
half-life at 1 μM [1]: 1.05 h | EC50 (Human GLP-1R): 0.011 nM

O=C(O)c1ccc2nc(CN3CCC(c4cccc(OCc5ccc(C6(F)COC6)cc5F)n4)CC3)n(C[C@@H]3CCO3)c2c1 [Compound 15, (S)-2-((4-(6-((2-fluoro-4-(3-fluoroxetan-3-yl)benzyl)oxy)pyridin-2-yl)piperidin-1-yl)methyl)-1-(oxetan-2-ylmethyl)-1H-benzo[d]imidazole-6-carboxylic acid]
EC50 (Human GLP-1R): 0.08 nM

O=C(O)c1ccc2nc(CN3CCC(c4cccc(OCc5ccc(C6COC6)cc5C(F)F)n4)CC3)n(C[C@@H]3CCO3)c2c1 [Compound 18, (S)-2-((4-(6-((2-(difluoromethyl)-4-(oxetan-3-yl)benzyl)oxy)pyridin-2-yl)piperidin-1-yl)methyl)-1-(oxetan-2-ylmethyl)-1H-benzo[d]imidazole-6-carboxylic acid]
EC50 (Human GLP-1R): 0.85 nM

N#Cc1ccc(COc2cccc(C3CCN(Cc4nc5ccc(C(=O)O)cc5n4C[C@@H]4CCO4)CC3)n2)c(F)c1 [Compound 20, 2-[(4-{6-[(4-cyano-2-fluorophenyl)methoxy]pyridin-2-yl}piperidin-1-yl)methyl]-1-{[(2S)-oxetan-2-yl]methyl}-1H-1,3-benzodiazole-6-carboxylic acid, reference compound]
half-life at 1 μM [1]: 1.87 h | non-toxic response dose level (ICR mice [2]; ICR mice, gavage once a day for 14 consecutive days): less than 200 mg/kg | biochemical analysis of serum (ICR mice [2]; compared to vehicle control): increase in TBIL | clinical observation (ICR mice [2]; toxicity and toxicokinetic studies, 200 mg/kg): decreased activity, piloerection, cold skin when touched, arched-back posture and prone position were frequently observed | animals found dead (ICR mice [2]; toxicity study, male animals, 200 mg/kg oral once a day for 14 days): 2/10 | animals found dead (ICR mice [3]): 4/14 | AUC(0-inf) ([4]; plasma of female animals): 331 µg·h/mL | Cmax ([4]; plasma of female animals): 104 µg/mL | AUC(0-inf) ([4]; plasma of male animals): 254 µg·h/mL | Cmax ([4]; plasma of male animals): 91 µg/mL | AUC(0-t) ([4]; female, plasma of female animals): 338 µg·h/mL | AUC(0-t) ([4]; male, plasma of male animals): 387 µg·h/mL | IC50 (hERG potassium channels): 5800 nM
